Laboratory results published in US20240024346A1, “CD73 INHIBITORS AND PHARMACEUTICAL USES THEREOF” (RISEN (SUZHOU) PHARMA TECH CO., LTD., priority 2020, published 2024).
Where two headings read alike, the source gives them in different places.

How the values were obtained:
[1] = biological target: T1, CD73 protein (Homo sapiens, UniProt P21589); experiment: CD73 enzyme inhibition assay (Malachite Green Phosphate Detection Kit); format: biochemical; details: for IC50: Tris-HCl pH 7.3, read-out: Potency (IC50 class) in CD73 enzyme assay; for inhibitory activity in the CD73 enzyme assay: result in words
T1 construct: purchased Novoprotein C446
T1 sequence (P21589 27-549): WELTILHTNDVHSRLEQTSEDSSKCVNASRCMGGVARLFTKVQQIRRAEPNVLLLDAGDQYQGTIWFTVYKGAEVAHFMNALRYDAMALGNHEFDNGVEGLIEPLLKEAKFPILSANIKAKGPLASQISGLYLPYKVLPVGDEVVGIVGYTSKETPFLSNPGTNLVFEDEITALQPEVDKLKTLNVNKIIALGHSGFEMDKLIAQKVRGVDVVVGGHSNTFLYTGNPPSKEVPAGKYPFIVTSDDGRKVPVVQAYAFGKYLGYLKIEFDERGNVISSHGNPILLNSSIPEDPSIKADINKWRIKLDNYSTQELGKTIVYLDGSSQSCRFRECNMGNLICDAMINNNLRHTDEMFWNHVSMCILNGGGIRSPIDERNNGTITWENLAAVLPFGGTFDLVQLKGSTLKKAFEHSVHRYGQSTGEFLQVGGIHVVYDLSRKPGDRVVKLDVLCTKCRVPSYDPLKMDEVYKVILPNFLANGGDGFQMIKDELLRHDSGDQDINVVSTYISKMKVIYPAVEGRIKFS
Method: To evaluate the inhibitory effect of selected compounds on CD73, Malachite Green Phosphate Detection Kit (R&D, Cat #DY996) was used. Briefly, compounds were dissolved and diluted to the desired concentration using phosphate-free buffer (Tris-HCl, pH 7.3). 25 μL of the compound solution was added to an equal volume of CD73 protein solution (2×concentration, 0.5 μg/mL, Novoprotein, Cat #C446), followed by a 5-minute incubation at room temperature. 10 μL of Malachite Green Reagent A was added to each well, mixed thoroughly and incubated for 10 minutes at room temperature. 10 μL of Malachite Green Reagent B was then added to each well, mixed thoroughly and incubated for 20 minutes at room temperature. Finally, the optical density of each well was determined using a microplate reader set to 620 nm.

[2] = Pharmacokinetic evaluation in ICR mice after intravenous injection; format: in vivo; details: mouse; ICR male mice, 1.0 mg/kg intravenous, plasma
Method: A test compound (1.0 mg/kg) was administered to fasted ICR male mice via intravenous injection, and blood samples were collected at time points of 0.08, 0.25, 0.5, 1, 2, 4, 6, 8 and 24 h after the administration. Plasma sample was separated by centrifugation (8000 rpm) and stored at −80° C. until the sample was analyzed. Concentrations of the test compound in the plasma were determined by HPLC-MS/MS: the plasma was dispensed into appropriate tubes containing internal standard and methanol or acetonitrile. The tubes were mixed vigorously for 3 minutes to achieve deproteinization and then centrifuged at 8000 rpm for 5 minutes. The supernatant was transferred to an autosampler vial, injected into the chromatographic system, and quantified on MS/MS detector. Pharmacokinetic parameters including AUC0-4, Cmax, Tmax, t1/2, MRT, Cl and Vd were calculated using WinNonlin 6.3 software. Table 3 summarizes key PK parameters for test compounds (AUC(0-t): the area under the curve from time 0 to time t; AUC(0-∞): the area under the curve from time 0 to infinity; t1/2: Half-life; CL: clearance; C0: the concentration of drug in blood if the drug molecules enter the circulation and are distributed immediately (i.e., at time 0)).

[3] = biological target: T2, Recombinant human 5′-nucleotidase (hCD73) (Homo sapiens, UniProt P21589); experiment: CD73 enzyme inhibition assay (recombinant hCD73, AMP substrate, phosphate detection); format: biochemical; details: 37° C. 20 min, absorbance 635 nm
T2 sequence (P21589 27-549): T1 sequence (P21589 27-549)
Method: Test compound solution preparation: Stock solution of a test compound was prepared in DMSO at 10 mM concentration. A series of preset 10-concentration solutions of a test compound were prepared by diluting the stock solution in 5-fold gradient dilution with DMSO.
Assay buffer (1×): […] Tris, 25 mM NaCl, 1 mM MgCl2, pH 7.5, 0.005% Tween-20 (freshly prepared, and ready for use).
An aliquot of 0.25 μL of compound solution or DMSO (blank control) was added to each test well of a micro well plate. Recombinant human 5′-nucleotidase (hCD73) was diluted to 1 nM in assay buffer; and an aliquot of 25 μL hCD73 (1 nM) solution was added to the corresponding wells of the plate. The contents of the well were well-mixed, and the plate was covered with sealing film, centrifuged at 1000 rpm for 30 sec., followed by incubation at room temperature for 15 min. AMP, the substrate, was diluted to 60 μM concentration in the assay buffer. To each reaction well was added 25 μL of AMP solution. After mixing well, the plate was covered with sealing film, centrifuged at 1000 rpm for 30 sec., and incubated at 37° C. for 20 min. The absorbance signal (end point) was measured on SPARK plate reader at 635 nm (See PiColorLock™ Gold Phosphate Detection System (Abcam) test kit for reference).
The reaction wells containing CD73 enzyme, substrate AMP and DMSO (no compound) were used as positive control, and the reaction wells containing substrate AMP and DMSO but no CD73 enzyme were used as negative control. The percent (%) inhibition at each concentration of compound was calculated based on and relative to the signal in the High and Low control wells contained within each assay plate. The High control wells were considered as 0% inhibition, and the low control wells, which didn't contain any compound but rather DMSO (final concentration=0.5%), as 100% inhibition. IC50 values were obtained using GraphPad Prism software.

[4] = test system: human T cell; experiment: CD73 cellular assay (T cell stimulation assay: CellTiter-Glo proliferation and IFN-γ ELISA); format: cell-based; details: human T cells, anti-CD3/CD28, AMP + EHNA, 72 hours
Method: Day 2, human T cell seeding: (a) washing the coated plate (from Day 1) with sterilized PBS buffer (2×100 uL); (b) re-suspending T cells and adjusting cell density to 0.5×10^6 cells/mL with growth media (X-VIVO 15+1% Pen/strep+1% glutamine), and seeding 100 μL/well (50,000 cells/well) in 96-well plates; (c) diluting CD28 antibody for 8× working concentration (8 μg/mL) with growth media, giving 1 μg/mL of the final concentration, followed by addition of CD28 antibody (25 μL) to cell plate; incubating the plates under 5% CO2 at 37° C. for 60 min; (d) adding compound (25 μL, 8×dilution with growth media) to cell plate, and incubating the plates under 5% CO2 at 37° C. for 60 min; (e) adding AMP (25 μL) and EHNA (25 μL, 8×dilution with growth media) to cell plate; (f) incubating the plates under 5% CO2 at 37° C. for 72 hours.
Day 5, collecting cell growth media and testing cell proliferation: (a) centrifuging the cell plate (1,000 rpm) for 5 min; (b) harvesting 150 μL of the cell culture media from each well to 96 well plate, followed by measurement of IFN-r expression by ELISA test; (c) taking a portion of the cell culture supernatant for cytokine analysis, removing the remaining supernatant, followed by addition of fresh growth media (X-VIVO 15+1% Pen/strep+1% glutamine, 100 μL); (d) adding Celltiter-Glo solution (50 μL) into each well for the measurement of cell proliferation by: (e) incubating the plates at room temperature for 10 min on a shaker; (f) transferring 100 μL solution into 96-well white plate and taking the readout of the Celltiter-Glo data using a TECAN Reader.

Compound | IC50 [1] | clearance [2] | IC50 [3] | other results
O=P(O)(O)CP(=O)(O)OC[C@H]1O[C@@H](n2cnc3c(NCc4ccccc4)nc(Cl)nc32)C(O)C1O (stereo partly drawn) [Compound 1] | < 10 nM |  |  | 
O=P(O)(O)CP(=O)(O)OC[C@H]1O[C@@H](n2cnc3c(NCc4cccc5ccccc45)nc(Cl)nc32)C(O)C1O (stereo partly drawn) [Compound 6] | < 10 nM |  |  | 
O=P(O)(O)CP(=O)(O)OC[C@H]1O[C@@H](n2cnc3c(NCc4ccc5ccccc5c4)nc(Cl)nc32)C(O)C1O (stereo partly drawn) [Compound 7] | < 10 nM |  |  | 
C[C@]12C[C@@H]3C[C@](C)(C1)C[C@@](Nc1nc(Cl)nc4c1ncn4[C@@H]1O[C@H](COP(=O)(O)CP(=O)(O)O)C(O)C1O)(C3)C2 (stereo partly drawn) [Compound 9] | < 10 nM |  |  | 
CCCCCCCCCCCCOC(=O)Nc1nc(Cl)nc2c1ncn2[C@@H]1O[C@H](COP(=O)(O)CP(=O)(O)O)C(O)C1O (stereo partly drawn) [Compound 15] | < 10 nM |  |  | 
O=C(CC12CC3CC(CC(C3)C1)C2)Nc1nc(Cl)nc2c1ncn2[C@@H]1O[C@H](COP(=O)(O)CP(=O)(O)O)C(O)C1O (stereo partly drawn) [Compound 16] | 10 to 100 nM |  |  | 
CCCCCCCCCCCCN(CCCCCCCCCCCC)c1nc(Cl)nc2c1ncn2[C@@H]1O[C@H](COP(=O)(O)CP(=O)(O)O)C(O)C1O (stereo partly drawn) [Compound 19] | > 100 nM |  |  | 
O=P(O)(O)CP(=O)(O)OC[C@H]1O[C@@H](n2cnc3c(NC45CC6CC(CC(C6)C4)C5)nc(Cl)nc32)C(O)C1O (stereo partly drawn) [Compound 22] | < 10 nM |  |  | 
CC1(C)[C@@H]2CC[C@@]1(C)C(OC(=O)Nc1nc(Cl)nc3c1ncn3[C@@H]1O[C@H](COP(=O)(O)CP(=O)(O)O)C(O)C1O)C2 (stereo partly drawn) [Compound 23] | 10 to 100 nM |  |  | 
O=P(O)(O)CP(=O)(O)OC[C@H]1O[C@@H](n2cnc3c(N4CCC5(CCCCC5)C4)nc(Cl)nc32)C(O)C1O (stereo partly drawn) [Compound 31] | < 10 nM |  |  | 
O=P(O)(O)CP(=O)(O)OC[C@H]1O[C@@H](n2cnc3c(N4C5CCC4CC(O)C5)nc(Cl)nc32)C(O)C1O (stereo partly drawn) [Compound 51] | < 10 nM |  |  | 
C[C@H](Nc1cc(Cl)nc2c1cnn2[C@@H]1O[C@H](COP(=O)(O)CP(=O)(O)O)[C@@H](O)[C@H]1O)c1ccccc1F [Compound a, AB680, reference compound] |  | 0.7 mL/min/kg |  | 
O=P(O)(O)CP(=O)(O)OC[C@H]1O[C@@H](n2cnc3c(N4CC(c5ccccc5)c5ccccc54)nc(Cl)nc32)C(O)C1O (stereo partly drawn) [Compound d-38] |  |  | 1.92 nM | 
O=P(O)(O)CP(=O)(O)CC[C@H]1O[C@@H](n2cnc3c(NCc4ccccc4)nc(Cl)nc32)C(O)C1O (stereo partly drawn) [a-1] |  |  |  | inhibitory activity in the CD73 enzyme assay [1]: showed inhibitory activity
C[C@]12C[C@@H]3C[C@](C)(C1)C[C@@](Nc1nc(Cl)nc4c1ncn4[C@@H]1O[C@H](CCP(=O)(O)CP(=O)(O)O)C(O)C1O)(C3)C2 (stereo partly drawn) [a-9] |  |  |  | inhibitory activity in the CD73 enzyme assay [1]: showed inhibitory activity
O=P(O)(O)CP(=O)(O)CC[C@H]1O[C@@H](n2cnc3c(N4CCC5(CCCCC5)C4)nc(Cl)nc32)C(O)C1O (stereo partly drawn) [a-31] |  |  |  | inhibitory activity in the CD73 enzyme assay [1]: showed inhibitory activity
O=P(O)(O)CP(=O)(O)OC[C@H]1O[C@@H](n2cnc3c(N4CCC5(CCCc6ccccc65)C4)nc(Cl)nc32)[C@@H](O)C1O (stereo partly drawn) [d-6] |  | 2.55 mL/min/kg |  | 
O=P(O)(O)CP(=O)(O)OC[C@H]1O[C@@H](n2cnc3c(N4CC5(CCCCC5)c5ccccc54)nc(Cl)nc32)[C@@H](O)C1O (stereo partly drawn) [d-7] |  | 0.0833 mL/min/kg | 1.8 nM | 
O=P(O)(O)CP(=O)(O)OC[C@H]1O[C@@H](n2cnc3c(N4CCC5(CCc6ccccc65)C4)nc(Cl)nc32)C(O)C1O (stereo partly drawn) [d-8] |  |  | 0.75 nM | 
O=P(O)(O)CP(=O)(O)OC[C@H]1O[C@@H](n2cnc3c(N4CC5(Cc6ccccc6C5)C4)nc(Cl)nc32)[C@@H](O)C1O (stereo partly drawn) [d-9] |  | 0.75 mL/min/kg | 0.73 nM | 
O=P(O)(O)CP(=O)(O)OC[C@H]1O[C@@H](n2cnc3c(N4CC5(CCCc6ccccc65)C4)nc(Cl)nc32)[C@@H](O)C1O (stereo partly drawn) [d-12] |  | 1.7 mL/min/kg | 0.4 nM | 
O=P(O)(O)CP(=O)(O)OC[C@H]1O[C@@H](n2cnc3c(N4CC5(CCCC5)c5ccccc54)nc(Cl)nc32)[C@@H](O)C1O (stereo partly drawn) [d-13] |  | 0.05 mL/min/kg | 1.5 nM | 
O=P(O)(O)CP(=O)(O)OC[C@H]1O[C@@H](n2cnc3c(N4CC5(CCC5)c5ccccc54)nc(Cl)nc32)[C@@H](O)C1O (stereo partly drawn) [d-20] |  | 0.133 mL/min/kg | 1.29 nM | 
O=P(O)(O)CP(=O)(O)OC[C@H]1O[C@@H](n2cnc3c(N4CCC5(CC4)Cc4ccccc4C5)nc(Cl)nc32)[C@@H](O)C1O (stereo partly drawn) [d-21] |  | 2.28 mL/min/kg | 1.42 nM | 
O=P(O)(O)CP(=O)(O)OC[C@H]1O[C@@H](n2cnc3c(N4CC5(CCCCCC5)c5ccccc54)nc(Cl)nc32)[C@@H](O)C1O (stereo partly drawn) [d-22] |  | 0.1 mL/min/kg |  | 
O=P(O)(O)CP(=O)(O)OC[C@H]1O[C@@H](n2cnc3c(N4CCC(c5ccccc5)(c5ccccc5)C4)nc(Cl)nc32)C(O)C1O (stereo partly drawn) [d-33] |  |  | 1.76 nM | EC50 ([4]; read-out: EC50 CTG (CellTiter-Glo, cell proliferation)): 4.07 nM; EC50 ([4]; read-out: EC50 IFN-γ (ELISA, indicator for T-cell activity)): 2.53 nM
O=P(O)(O)CP(=O)(O)OC[C@H]1O[C@@H](n2cnc3c(N4CC(c5ccccc5)(c5ccccc5)C4)nc(Cl)nc32)C(O)C1O (stereo partly drawn) [d-35] |  |  | 1.39 nM | 
O=P(O)(O)CP(=O)(O)OC[C@H]1O[C@@H](n2cnc3c(N4CC(c5ccccc5)C(c5ccccc5)C4)nc(Cl)nc32)C(O)C1O (stereo partly drawn) [d-36] |  |  | 1.86 nM | 
